From patent US7622471B2, “Pyrazole derivatives having a pyridazine and pyridine functionality” (Daiichi Pharmaceutical Co., Ltd., priority 2003, dated 2009)
Like-named read-outs stand apart in the source and are kept apart here.

How the values were obtained:
[1] = test system: collagen-induced platelet aggregation; conditions: prior-art compound, cited from earlier work
[2] = test system: collagen-induced platelet aggregation; assay: Platelet aggregation-inhibiting action (collagen-induced aggregation of human platelet rich plasma); format: cell-based; conditions: human PRP, read-out: Inhibition of collagen-induced platelet aggregation, IC50
Description: Human blood was collected in the presence of 3.13% sodium citrate as an anticoagulant in a volume 1/10 the blood volume. The collected blood was centrifuged at 180 g for 10 minutes so as to separate the upper layer; i.e., platelet rich plasma (PRP) from the blood. The remaining lower layer was further centrifuged at 1600 g for 10 minutes, and platelet poor plasma (PPP); i.e., the thus-obtained upper layer, was collected. A solution (1 μL) of the inventive compound was added to PRP (200 μL), and the mixture was allowed to stand at 37° C. for 2 minutes. Subsequently, collagen (2 μL) was added to the resultant mixture so as to induce platelet aggregation. Percent platelet aggregation was measured by means of PAM-12C(SSR Engineering). Optical transmittance of PPP was employed as the value reflecting the state in which 100% coagulation occurred. Percent platelet aggregation values of PRP were determined at a series of concentrations of each Example compound. From the determined values, IC50 with respect to each compound was calculated.

cyclooxygenase-1 (COX-1) = target: T1, cyclooxygenase-1 (COX-1) (Ovis aries, UniProt P05979); assay: Inhibitory effect on COX-1 (COX Inhibitor Screening Assay Kit, PGF2α ELISA); format: biochemical; conditions: 50 μM compound
T1 construct: purchased Cayman Chemical Company 560101 and 560121
T1 sequence (P05979 25-600): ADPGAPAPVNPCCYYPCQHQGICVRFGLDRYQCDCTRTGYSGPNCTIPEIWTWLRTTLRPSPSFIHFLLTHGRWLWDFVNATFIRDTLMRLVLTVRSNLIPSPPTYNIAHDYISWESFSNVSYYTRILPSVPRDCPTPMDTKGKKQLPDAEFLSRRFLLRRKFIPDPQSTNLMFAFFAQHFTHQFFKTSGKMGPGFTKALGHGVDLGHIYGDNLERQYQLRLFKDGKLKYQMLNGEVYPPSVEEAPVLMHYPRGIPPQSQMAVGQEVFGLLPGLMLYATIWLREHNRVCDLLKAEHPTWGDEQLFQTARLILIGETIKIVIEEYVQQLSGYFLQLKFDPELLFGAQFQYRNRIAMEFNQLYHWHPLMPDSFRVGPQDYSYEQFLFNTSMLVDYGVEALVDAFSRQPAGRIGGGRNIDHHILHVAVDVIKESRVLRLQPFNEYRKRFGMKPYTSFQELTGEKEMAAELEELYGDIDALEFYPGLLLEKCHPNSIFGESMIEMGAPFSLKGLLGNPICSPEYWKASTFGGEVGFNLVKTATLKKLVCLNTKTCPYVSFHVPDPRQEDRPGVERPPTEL
Description: (§1) Inhibitory activity against COX-1 and COX-2 of the compounds produced in the Examples was measured using a COX Inhibitor Screening Assay Kit (product of Cayman Chemical Company, Catalog Nos. 560101 and 560121).
(§2) Before starting the measurement, reaction buffer, heme, arachidonic acid, SnCl2, EIA buffer, washing buffer, prostaglandin (PG) screening EIA standard, PG screening acetylcholine esterase (AchE), tracer (chromogenic enzyme […] conjugate), and PG screening EIA antiserum were prepared ready for use.
(§3) (1) Production of PGF2α in the Presence of COX-1 or COX-2
(§4) A reaction mixture containing the compound of the Examples (50 μM) and COX-1 or COX-2 was incubated at 37° C. for 10 minutes. Arachidonic acid (10 μL) was added thereto, and the resultant mixture was further incubated at 37° C. for 2 minutes. 1N-Hydrochloric acid (50 μL) was added to the reaction mixture, to thereby stop the reaction. SnCl2 solution (100 μL) was added thereto, and the resultant mixture was kept at room temperature for 5 minutes.
(§5) (2) Quantitative Determination of PGF2α through ELISA
(§6) Antiserum (rabbit anti-PGF2αantibody, 50 μL) was added to the wells of 96 well plate that had been coated with mouse anti-rabbit IgG. A solution of PGF2α-containing mixture obtained above (2000-fold dilution, 50 μL) and AchE tracer (50 μL) were added to the well in this order, and the mixture was incubated at room temperature for 18 hours. The wells were washed 5 times with the washing buffer to remove an excessive AchE tracer, and Ellman reagent (200 μL) was added. After keeping the plate in a dark room for 60 minutes, absorbance at 405 nm was measured.
(§7) (3) Calculation of Inhibitory Activity of the Compound of the Examples
(§8) A calibration curve was obtained by use of the PG screening EIA standard, and the production amount of PGF2α was determined from the absorbance. Percent inhibition of COX-1 or COX-2 activity at 50 μM of the compound of the Examples was calculated.

cyclooxygenase-2 (COX-2) = target: T2, cyclooxygenase-2 (COX-2) (Homo sapiens, UniProt P35354); assay: Inhibitory effect on COX-2 (COX Inhibitor Screening Assay Kit, PGF2α ELISA); format: biochemical; conditions: 50 μM compound
T2 construct: purchased Cayman Chemical Company 560101 and 560121
T2 sequence (P35354 18-604): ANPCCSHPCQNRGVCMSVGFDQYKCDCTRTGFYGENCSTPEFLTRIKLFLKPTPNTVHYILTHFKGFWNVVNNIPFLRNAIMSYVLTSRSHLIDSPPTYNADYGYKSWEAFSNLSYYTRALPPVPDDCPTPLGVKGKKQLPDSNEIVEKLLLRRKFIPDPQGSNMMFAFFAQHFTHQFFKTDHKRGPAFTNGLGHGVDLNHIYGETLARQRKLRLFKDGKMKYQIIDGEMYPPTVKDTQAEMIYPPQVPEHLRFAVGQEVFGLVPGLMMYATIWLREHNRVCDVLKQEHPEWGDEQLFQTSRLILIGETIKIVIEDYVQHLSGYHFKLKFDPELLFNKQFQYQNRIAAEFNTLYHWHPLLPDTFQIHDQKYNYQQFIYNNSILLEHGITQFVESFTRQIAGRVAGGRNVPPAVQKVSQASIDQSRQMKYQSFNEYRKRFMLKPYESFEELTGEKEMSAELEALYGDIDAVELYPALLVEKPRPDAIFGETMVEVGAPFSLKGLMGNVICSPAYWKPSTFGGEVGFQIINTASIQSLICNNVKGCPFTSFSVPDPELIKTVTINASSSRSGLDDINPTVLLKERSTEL
Description: as §1, §2, §3, §4, §5, §6, §7, §8

[3] = not dose-dependent; cited from earlier work

| IC50 [2] [nM] | SMILES | Inhibitory effect against COX-1 at 50 μM (% inhibition) (cyclooxygenase-1 (COX-1)) | Inhibitory effect against COX-2 at 50 μM (% inhibition) (cyclooxygenase-2 (COX-2)) | further results |
| --- | --- | --- | --- | --- |
|  | COc1ccc(-c2cc(C(F)F)nn2-c2ccc(S(N)(=O)=O)cc2)cc1F [compound (B)] |  |  | platelet aggregation inhibitory activity compared with inhibitory activity against COX-2 ([1]; in words): not so potent |
| 260 | COc1ccc(-n2nc(C(=O)N3CC(N(C)C)C3)cc2-c2ccccc2)cn1 [Example 70, 1-[1-(6-Methoxy-3-pyridyl)-5-phenylpyrazole-3-carbonyl]-3-dimethylaminoazetidine] |  |  |  |
| 17 | COc1ccc(-n2nc(C(=O)N3CCOCC3)cc2-c2ccc[nH]2)cn1 [Example 168, 4-[1-(6-Methoxy-3-pyridyl)-5-(pyrrol-2-yl)pyrazole-3-carbonyl]morpholine] |  |  |  |
| 110 | COc1ccc(-n2nc(C(=O)N3CCCC(F)(F)C3)cc2-c2ccccn2)nn1 [Example 140, 1-[1-(6-Methoxy-3-pyridazinyl)-5-(2-pyridyl)pyrazole-3-carbonyl]-3,3-difluoropiperidine] |  |  |  |
| 170 | COc1ccc(-n2nc(C(=O)N3CCCOCC3)cc2-c2ccccn2)cn1 [Example 160, 4-[1-(6-Methoxy-3-pyridyl)-5-(2-pyridyl)pyrazole-3-carbonyl]-1,4-oxazepane] |  |  |  |
| 29 | COc1ccc(-n2nc(C(=O)N3CCN(C)CC3)cc2-c2ccc[nH]2)cn1 [Example 167, 1-[1-(6-Methoxy-3-pyridyl)-5-(pyrrol-2-yl)pyrazole-3-carbonyl]-4-methylpiperazine] |  |  |  |
|  | CC(=O)Oc1ccccc1C(=O)O [Aspirin] |  |  | rate of side effects such as hemorrhage in gastrointestine (aspirin-induced ulcer) [3]: about 1 per 100 patients |
|  | CS(=O)(=O)c1ccc(-c2cc(C#N)nn2-c2ccc(F)cc2)cc1 [Compound (A)] |  |  | IC50 ([1]; read-out: IC50 value against collagen-induced platelet aggregation): 5300 nM |
| 90 | COc1ccc(-n2nc(C(=O)N3CCN(C)CC3)cc2-c2cnccn2)cn1 [Example 148, 1-[1-(6-Methoxy-3-pyridyl)-5-(2-pyrazinyl)pyrazole-3-carbonyl]-4-methylpiperazine] |  |  |  |
| 140 | COc1ccc(-n2nc(C(=O)N3CCOCC3)cc2-c2ccccn2)cn1 [Example 36, 4-[1-(6-Methoxy-3-pyridyl)-5-(2-pyridyl)pyrazole-3-carbonyl]morpholine] |  |  |  |
| 35 | COc1ccc(-n2nc(C(=O)N3CCN(C4CC4)CC3)cc2-c2ccccn2)cn1 [Example 55, 1-[1-(6-Methoxy-3-pyridyl)-5-(2-pyridyl)pyrazole-3-carbonyl]-4-cyclopropylpiperazine] |  |  |  |
| 90 | COc1ccc(-n2nc(C(=O)N3CCCCN3C(C)=O)cc2-c2ccccn2)cn1 [Example 163, 1-[1-(6-Methoxy-3-pyridyl)-5-(2-pyridyl)pyrazole-3-carbonyl]-2-acetylhexahydropyridazine] |  |  |  |

| SMILES | IC50 [2] [nM] | Inhibitory effect against COX-1 at 50 μM (% inhibition) (cyclooxygenase-1 (COX-1)) | Inhibitory effect against COX-2 at 50 μM (% inhibition) (cyclooxygenase-2 (COX-2)) | further results |
| --- | --- | --- | --- | --- |
| COc1cnc(-n2nc(C(=O)N3CCN(C)CC3)cc2-c2ccccn2)cn1 [Example 144, 1-[1-(5-Methoxy-2-pyrazinyl)-5-(2-pyridyl)pyrazole-3-carbonyl]-4-methylpiperazine] | 440 | 9.7 | 8.8 |  |
| COc1ccc(-n2nc(C(=O)N3CCN(C)CC3)cc2-c2ccccc2)cn1 [Example 62, 1-[1-(6-Methoxy-3-pyridyl)-5-phenylpyrazole-3-carbonyl]-4-methylpiperazine] | 120 | −2.4 | −2.6 |  |
| COc1ccc(-n2nc(C(=O)N3CCCCC3)cc2-c2ccccn2)nn1 [Example 122, 1-[1-(6-Methoxy-3-pyridazinyl)-5-(2-pyridyl)pyrazole-3-carbonyl] piperidine] | 750 | 1 | 4.5 |  |
| COc1ccc(-n2nc(C(=O)N3CCN(C)CC3)cc2-c2ccccn2)nn1 [Example 132, 1-[1-(6-Methoxy-3-pyridazinyl)-5-(2-pyridyl)pyrazole-3-carbonyl]-4-methylpiperazine] | 400 | 2.7 | 10.5 |  |
| COc1ccc(-n2nc(C(=O)N3CCC(F)(F)CC3)cc2-c2ccccn2)nn1 [Example 139, 1-[1-(6-Methoxy-3-pyridazinyl)-5-(2-pyridyl)pyrazole-3-carbonyl]-4,4-difluoropiperidine] | 42 | 7.6 | 3.4 |  |
| COc1ccnc(-c2cc(C(=O)N3CCN(C)CC3)nn2-c2ccc(OC)nc2)c1 [Example 27, 1-[1-(6-Methoxy-3-pyridyl)-5-(4-methoxy-2-pyridyl)pyrazole-3-carbonyl]-4-methylpiperazine] | 270 | 0.5 | −0.1 |  |
| COc1ccc(-n2nc(C(=O)N3CCN(C)C(=O)C3)cc2-c2ccccn2)cn1 [Example 23, 1-[1-(6-Methoxy-3-pyridyl)-5 (2-pyridyl)pyrazole-3-carbonyl]-4-methyl-3-oxopiperazine] | 170 | −1.2 | 3.4 |  |
